Laboratory results from ChEMBL document CHEMBL1201862, “PubChem BioAssay data set” (2004).
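96-well plates; 48 h exposure; 5 concentrations. Endpoints by linear interpolation between flanking doses. Not reached: highest tested concentration assigned. GI50 is the concentration that inhibits growth by half.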 The source made the active and inactive calls. No stated cut-off is given here; in the data, active = GI50 up to about 1.1 µM and inactive = higher.

What was measured:
Experiment in all cases: DTP human tumour cell line panel, 48 h
T47D = test system: T47D
CCRF-CEM = test system: CCRF-CEM
HOP-62 = test system: HOP-62
SN12C = test system: SN12C
K562 = test system: K562
PC-3 = test system: PC-3
SK-OV-3 = test system: SK-OV-3
OVCAR-8 = test system: OVCAR-8
EKVX = test system: EKVX
Hs-578T = test system: Hs-578T
ACHN = test system: ACHN
HOP-92 = test system: HOP-92
M14 = test system: M14
MDA-MB-435 = test system: MDA-MB-435
NCI-H226 = test system: NCI-H226
A498 = test system: A498
OVCAR-5 = test system: OVCAR-5
SF-539 = test system: SF-539
MDA-N = test system: MDA-N
LOX IMVI = test system: LOX IMVI
NCI-H23 = test system: NCI-H23
MCF7 = test system: MCF7
TK-10 = test system: TK-10
DU-145 = test system: DU-145
RPMI-8226 = test system: RPMI-8226
SNB-75 = test system: SNB-75
UO-31 = test system: UO-31
786-0 = test system: 786-0
SK-MEL-28 = test system: SK-MEL-28
IGROV-1 = test system: IGROV-1
MOLT-4 = test system: MOLT-4
MDA-MB-231 = test system: MDA-MB-231
U-251 = test system: U-251
HCT-15 = test system: HCT-15
SF-268 = test system: SF-268
SW-620 = test system: SW-620
NCI-H460 = test system: NCI-H460
SK-MEL-2 = test system: SK-MEL-2
HCC 2998 = test system: HCC 2998
A549 = test system: A549
COLO 205 = test system: COLO 205
SNB-19 = test system: SNB-19
SR = test system: SR
SK-MEL-5 = test system: SK-MEL-5
UACC-62 = test system: UACC-62
NCI/ADR-RES = test system: NCI/ADR-RES
HL-60 = test system: HL-60
HCT-116 = test system: HCT-116
RXF 393 = test system: RXF 393
BT-549 = test system: BT-549
SF-295 = test system: SF-295
UACC-257 = test system: UACC-257
NCI-H522 = test system: NCI-H522

Measured: GI50

COC(=O)C1(NC(=O)C(Cc2ccccc2)N(C(=O)OC(C)(C)C)C(=O)OC(C)(C)C)CCCC1 (stereo not given)
66.4 µM: HCT-15
inactive: T47D 36.6 µM | CCRF-CEM 22.9 µM | HOP-62 77.8 µM | SN12C > 100 µM | K562 43 µM | PC-3 31 µM | SK-OV-3 > 100 µM | OVCAR-8 43.9 µM | EKVX 66.2 µM | Hs-578T > 100 µM | ACHN > 10 µM | HOP-92 59.2 µM | M14 > 100 µM | MDA-MB-435 83.9 µM | NCI-H226 > 100 µM | A498 25.8 µM | OVCAR-5 58.6 µM | SF-539 > 100 µM | MDA-N > 100 µM | LOX IMVI > 100 µM | NCI-H23 30.5 µM | MCF7 27.5 µM | TK-10 32.7 µM | DU-145 > 100 µM | RPMI-8226 20 µM | SNB-75 > 100 µM | UO-31 64 µM | 786-0 > 10 µM | SK-MEL-28 > 100 µM | IGROV-1 > 100 µM | MOLT-4 31.8 µM | MDA-MB-231 80.9 µM | U-251 49.5 µM | SF-268 > 100 µM | SW-620 > 100 µM | NCI-H460 46.1 µM | SK-MEL-2 > 100 µM | HCC 2998 19.9 µM | A549 37.9 µM | COLO 205 > 100 µM | SNB-19 > 100 µM | SR > 10 µM | SK-MEL-5 > 100 µM | UACC-62 20.1 µM | NCI/ADR-RES 22.3 µM | HL-60 22.1 µM | HCT-116 55.7 µM

CCN1C/C(=C\c2ccc(Cl)cc2)C2=NN(c3ccccc3)C(c3ccc(Cl)cc3)C2C1 (stereo not given)
> 100 µM: HCT-15
inactive: RXF 393 > 100 µM | HOP-62 > 100 µM | PC-3 > 100 µM | SK-OV-3 > 100 µM | OVCAR-8 > 100 µM | EKVX > 100 µM | ACHN > 100 µM | M14 > 100 µM | NCI-H226 > 100 µM | BT-549 > 100 µM | A498 > 100 µM | SF-295 > 100 µM | OVCAR-5 > 100 µM | LOX IMVI > 100 µM | NCI-H23 > 100 µM | MCF7 53.1 µM | TK-10 > 100 µM | DU-145 > 100 µM | SNB-75 > 100 µM | UO-31 > 100 µM | 786-0 > 100 µM | UACC-257 > 100 µM | NCI-H460 > 100 µM | A549 > 100 µM | COLO 205 > 100 µM | SNB-19 > 100 µM | SK-MEL-5 > 100 µM | NCI-H522 > 100 µM | UACC-62 > 100 µM | NCI/ADR-RES > 100 µM | HCT-116 > 100 µM
